Measured values as given in PMC11579541, “In vitro, in vivo, and in silico approaches for evaluating the preclinical DMPK profiles of ammoxetine, a novel chiral serotonin and norepinephrine reuptake inhibitor” (Frontiers in Pharmacology, 2024).
Where “and” joins values, the source holds several entries; their conditions need not be identical. Equal values may be shown once. Read-outs that look alike come from different tables or passages of the source.

Key:
[1] = set-up: method as in Xue et al., 2017; settings: citric acid/phosphate buffer (pH 2); ref Xue et al., 2017; cited from earlier work
DLM = experiment: Hepatic microsome stability assay, DLM; format: in vitro ADME, dog; settings: predicted hepatic clearance
Procedure: (§1) A hepatic microsome stability assay was conducted to investigate the metabolic disposition of ammoxetine. In this assay, 100 μL of ammoxetine (2.5 μmol/L) was incubated at 37°C with 100 μL of liver microsomes (RLM, DLM, MLM, or HLM) formulated in a 5 mmol/L dipotassium hydrogen phosphate (K2HPO4) buffer at pH 7.4. The concentration of microsomes was 0.5 g/L. To initiate the incubations, 50 μL of NADPH solution preincubated at 37°C was added. […] Parallel triplicate samples were prepared for each time point, including 0, 2, 5, 10, 15, 30, 60, 90, and 120 min. To stop the reactions at each time point, 250 μL of ice-cold precipitating agent (acetonitrile/methanol, 1:1, v/v) containing 500 ng/mL of L-phencynonate (IS) was added to the incubation mixture. The samples were vortexed for 2 min at 4°C and then centrifuged at 13,800×g for 10 min. The supernatants were analyzed using an LC-MS-MS approach. […]
(§2) In Formula 3, t1/2 (min) represents the half-life of ammoxetine in liver microsomes. It is calculated by dividing −0.693 by the resulting slope (k e) obtained from a natural logarithm plot of the remaining concentration of ammoxetine against incubation time. […]

[2] = Hepatic microsome stability assay, DLM; format: in vitro ADME, dog; settings: beagle, dog, liver microsomes, pH 7.4; 1 μmol/L, 0.2 g/L microsomes, NADPH
Procedure: as §1, §2

CYP 2C19 = CYP 2C19 (Homo sapiens, UniProt P33261); experiment: Phenotyping with recombinant human CYP 2C19; format: in vitro ADME; set-up: purchased BD (Woburn, USA); settings: 5 μmol/L, 25 pmol/mL CYP, 1 h
Chain of CYP 2C19 (P33261 whole entry): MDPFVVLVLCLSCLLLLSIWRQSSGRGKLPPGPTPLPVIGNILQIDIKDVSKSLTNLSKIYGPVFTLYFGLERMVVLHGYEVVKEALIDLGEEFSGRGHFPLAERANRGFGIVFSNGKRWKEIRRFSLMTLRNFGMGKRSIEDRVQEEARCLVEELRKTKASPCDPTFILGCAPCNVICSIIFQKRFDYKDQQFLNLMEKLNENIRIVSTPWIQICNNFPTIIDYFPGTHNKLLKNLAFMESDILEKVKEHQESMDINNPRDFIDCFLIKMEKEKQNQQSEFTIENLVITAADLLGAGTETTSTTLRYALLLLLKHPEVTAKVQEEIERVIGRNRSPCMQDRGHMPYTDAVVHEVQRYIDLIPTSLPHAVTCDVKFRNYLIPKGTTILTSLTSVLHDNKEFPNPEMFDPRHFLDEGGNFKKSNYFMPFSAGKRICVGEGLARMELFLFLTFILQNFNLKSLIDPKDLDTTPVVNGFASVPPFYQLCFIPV
Procedure: Ammoxetine (final concentration 5 μmol/L) was incubated with recombinant human CYP 3A4, CYP 1A2, CYP 2C9, CYP 2C19, and CYP 2D6 (final concentration 25 pmol/mL) in a 5 mmol/L K2HPO4 buffer at pH 7.4. The incubations were performed in quintuplicate. NADPH (final concentration 1 mmol/L) was added to initiate the incubation process. The mixture was then incubated at 37°C for 1 h. To stop the reaction, 200 μL of ice-cold acetonitrile/methanol (1:1, v/v) containing 500 ng/mL of L-phencynonate (IS) was added. The samples were vortexed for 2 min and centrifuged at 13,800×g and 4°C for 10 min. The supernatants obtained were analyzed using an LC-MS-MS method. To establish appropriate controls, zero-time controls and blank controls in the absence of NADPH were set up in parallel.

PK study in rats = format: in vivo, SD rats; settings: rat, plasma; for CL/F: read-out: CLz/F (converted); for MRT last: read-out: MRT(0-t); for MRT inf: read-out: MRT(0-∞); for Vd/F: read-out: Vz/F; for half-life: read-out: t1/2z (converted)
Procedure: For the PK studies in rats and dogs, a total of 18 SD rats and 15 male beagle dogs were randomly divided into three groups, with six rats or five dogs per group, respectively. Prior to the experiments, all animals underwent a 12-h fasting period, while having free access to water. The animals were administered single oral doses of ammoxetine in three different dose levels: 8 mg/kg, 20 mg/kg, and 50 mg/kg for rats, and 2 mg/kg, 5 mg/kg, and 12.5 mg/kg for dogs, representing low, medium, and high doses. Serial blood samples were collected from the rats at 0, 2, 5, 15, and 30 min, as well as 1, 2, 4, 6, 8, 12, and 24 h post-dosing. For the dogs, blood samples were collected at 0, 5, 15, 30, and 45 min, as well as 1, 2, 4, 6, 8, 12, and 24 h post-dosing. Approximately 0.3 mL of blood was collected from the rats, while 2 mL of blood was collected from the dogs. The blood samples were collected into heparinized tubes. Following centrifugation, plasma samples were obtained and stored at −30°C until further analysis.
To determine the concentration of ammoxetine, 100 μL of L-phencynonate (IS, 50 ng/mL) and 300 μL of methanol were added to 100 μL of plasma samples from rats or dogs. After thorough vortexing, the mixture was centrifuged at 13,800×g for 10 min. The supernatants were then subjected to analysis using LC-MS-MS methods. PK parameters were calculated using DAS (Drug And Statistics for Windows) version 2.0, developed by the Shanghai University of Traditional Chinese Medicine, Shanghai, China. The F was determined by comparing the plasma area under the concentration-time curve (AUC) values after oral (p.o.) and intravenous (i.v.) administration of ammoxetine. F was calculated using the formula: F=AUCp.o./AUCi.v.×100% . Statistical analyses were performed using OriginPro 8.6 software. Paired sample or student’s t-test, as well as one-way ANOVA, were employed to compare the means of two or three groups, with a significance level set at p < 0.05.

CL h (DLM): 16.64 ± 0.17 mL/min/kg
half-life at 1 μmol/L [2]: 138 ± 2.96 min
Transformation ratio% (CYP 2C19): 26.27±1.85% and 26.27%
residuary concentration of ammoxetine, Mean±SD (CYP 2C19): 5.05±0.13
AUC(0-inf) (PK study in rats; SD, 8 mg/kg single oral dose): 1370 ng·h/mL
AUC(0-t) (PK study in rats; SD, 8 mg/kg single oral dose): 1370 ng·h/mL
Cmax (PK study in rats; SD, 8 mg/kg single oral dose): 287 ± 50.8 ng/mL
CL/F (PK study in rats; SD, 8 mg/kg single oral dose): 100 mL/min/kg
MRT last (PK study in rats; SD, 8 mg/kg single oral dose): 4.38 ± 0.47 h
MRT inf (PK study in rats; SD, 8 mg/kg single oral dose): 4.49 ± 0.44 h
Tmax (PK study in rats; SD, 8 mg/kg single oral dose, read-out: Tmax): 0.75 ± 0.27 h
Vd/F (PK study in rats; SD, 8 mg/kg single oral dose): 24.4 ± 4.48 L/kg
half-life (PK study in rats; SD, 8 mg/kg single oral dose): 172 ± 35.4 min
AUC(0-inf) (PK study in rats; SD, 20 mg/kg single oral dose): 3400 ng·h/mL
AUC(0-t) (PK study in rats; SD, 20 mg/kg single oral dose): 3200 ng·h/mL
Cmax (PK study in rats; SD, 20 mg/kg single oral dose): 400 ± 246 ng/mL
CL/F (PK study in rats; SD, 20 mg/kg single oral dose): 108 mL/min/kg
MRT last (PK study in rats; SD, 20 mg/kg single oral dose): 6.73 ± 1.25 h
MRT inf (PK study in rats; SD, 20 mg/kg single oral dose): 8.57 ± 3.58 h
Tmax (PK study in rats; SD, 20 mg/kg single oral dose, read-out: Tmax): 1.58 ± 1.39 h
Vd/F (PK study in rats; SD, 20 mg/kg single oral dose): 53.5 ± 29 L/kg
half-life (PK study in rats; SD, 20 mg/kg single oral dose): 337 ± 155 min
AUC(0-inf) (PK study in rats; SD, 50 mg/kg single oral dose): 12900 ng·h/mL
AUC(0-t) (PK study in rats; SD, 50 mg/kg single oral dose): 11000 ng·h/mL
Cmax (PK study in rats; SD, 50 mg/kg single oral dose): 987 ± 362 ng/mL
CL/F (PK study in rats; SD, 50 mg/kg single oral dose): 72.3 mL/min/kg
MRT last (PK study in rats; SD, 50 mg/kg single oral dose): 7.74 ± 0.52 h
MRT inf (PK study in rats; SD, 50 mg/kg single oral dose): 11.8 ± 7.34 h
Tmax (PK study in rats; SD, 50 mg/kg single oral dose, read-out: Tmax): 3.83 ± 2.7 h
Vd/F (PK study in rats; SD, 50 mg/kg single oral dose): 40.3 ± 16.4 L/kg
half-life (PK study in rats; SD, 50 mg/kg single oral dose): 451 ± 342 min
Tmax (PK study in rats; Sprague-Dawley (SD), oral 8, 20 and 50 mg/kg, read-out: Tmax values, range): 0.75 to 3.83 h
SMILES: CNCC[C@H](Oc1cccc2c1OCO2)c1cccs1 [ammoxetine]
stability in buffer [1]: instability
